Patent US10561676B2, “Method for treating cancer using dual antagonists of CXCR1 and CXCR2” (Syntrix Biosystems, Inc., priority 2018, dated 2020)

Columns and labels:
[1] = molecular target: T1, CXCR2 (Homo sapiens, UniProt P25025); experiment: Wash-resistant inhibition of CXCL8-mediated calcium flux, CXCR2-transfected RBL cells; format: cell-based; conditions: 30 min incubation at 0.4, 2, 10 μM, then washout
T1 construct: expressed in transfected cells
T1 sequence (P25025 1-360): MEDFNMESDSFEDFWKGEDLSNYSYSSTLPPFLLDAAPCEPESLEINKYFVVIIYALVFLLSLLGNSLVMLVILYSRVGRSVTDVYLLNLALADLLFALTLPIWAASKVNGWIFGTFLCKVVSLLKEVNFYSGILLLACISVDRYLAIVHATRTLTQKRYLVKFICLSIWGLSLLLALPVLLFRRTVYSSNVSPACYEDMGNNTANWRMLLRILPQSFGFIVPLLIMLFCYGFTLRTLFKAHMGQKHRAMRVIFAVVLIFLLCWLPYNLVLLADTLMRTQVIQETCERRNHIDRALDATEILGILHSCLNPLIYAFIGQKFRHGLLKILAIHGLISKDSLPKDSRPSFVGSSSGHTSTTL
Method: In order to test this hypothesis, RBL cells (10^7 cells/ml) stably transfected with either CXCR1 or CXCR2 were (1) incubated with SX-682 at various concentrations for 30 minutes at 37° C., (2) washed and resuspended in assay buffer (RPMI/2% serum) at room temperature, and (3) assayed for CXCL8-mediated calcium response at time points up to 12 h after inhibitor washout. The concentrations of SX-682 tested were 0 (positive control), 0 (negative control), 0.4, 2, and 10 μM. At 30 minutes before each time point, a 56.25 μl aliquot of the cells were removed and loaded for 30 minutes at room temperature in the dark with FLIPR™ 3 reagent (262.5 μl per tube). Following FLIPR™ 3 incubation, cells were assayed for CXCL8 mediated intracellular calcium release as described in Pharmacology Example 1.

[2] = tested on: Ptenpc−/−p53pc−/−Smad4pc−/− mice; experiment: Ptenpc−/−p53pc−/−Smad4pc−/− mouse model of castration resistant prostate cancer; format: in vivo; conditions: 4-6 weeks
Method: The genetically engineered Ptenpc−/−p53pc−/−Smad4pc−/− mouse is a prostate-specific PB promoter-driven (PB-Cre4) conditional triple knockout model (i.e., prostate-specific deletion of all three tumor suppressors, Pten, p53 and Smad4 occurs in the ‘prostate cancer’ or ‘pc’). […] SX-682 was used as a spray dried dispersion (Formulation Example 1), and was administered to mice via oral gavage as a suspension in 0.5% aq. methylcellulose. Treatment was continued for 4-6 weeks and prostate weights measured to determine tumor burden. […] Mean+SE.

[3] = tested on: MDSCs; experiment: GROα-mediated MDSC migration; format: cell-based, mouse; conditions: 0.1, 1 and 10 μM, 100 ng/ml GROα, 12 hours
Method: Using the of method of Katoh 2013 to induce and isolate MDSCs, male BALBc mice were given a single intraperitoneal injection of azoxymethane (AOM, 10 mg/kg). Seven days later, these mice were given 4 cycles of water and water containing 1.25% dextran sulfate sodium (DSS). One cycle consisted of providing mice with regular drinking water for 7 days, followed by 1.25% aqueous DSS for 7 days, followed by regular drinking water for 7 days. MDSCs were isolated from femurs and blood of AOM/DSS-treated BALBc mice using the Myeloid-Derived Suppressor Cell Isolation Kit (Miltenyi Biotec) after lysis of red blood cells (RBC) according to the manufacturer's instructions. GROα (CXCL1) was placed in the bottom chamber of a 24-well plate at a concentration of 100 ng/ml. MDSCs isolated from blood of AOM/DSS-treated BALBc mice were seeded at a density of 1×10^6/well in the upper chamber (3 m, BD Falcon). After incubation for 12 hours, migrated cells were quantified by flow cytometry using COUNTBRIGHT™ Absolute Counting Beads (Molecular Probes). To evaluate the effect of SX-682 on GROα-mediated MDSC migration, aqueous DMSO solutions of SX-682 were added to the MDSC-seeded wells prior to migration. The test concentrations of SX-682 were 0.1, 1 and 10 μM, and the DMSO concentration was <1%.

[4] = tested on: T11 mouse model of breast cancer; experiment: T11 mouse model of breast cancer; format: in vivo
Excerpt: The T11 model is a validated mouse model of breast cancer, which derives from the serial orthotopic transplantation of a murine breast tumor derived from a p53-null mouse into a syngeneic p53 competent recipient, and features sporadic, somatic K-Ras mutation (Herschkowitz, 2012, Proc Natl Acad Sci, 109:2778-83, herein incorporated by reference). Tumors from the T11 model display an RNA expression pattern characteristic of the human claudin-low disease, and are extremely aggressive, with the majority of untreated animals surviving less than 21 days from the time of enrollment in the therapy studies. Treatment regimens were started following tumor manifestation. SX-682 was given orally via medicated feed, at an approximate dose of 10 mg/day/mouse. In brief, the medicated feed was prepared by Research Diets (New Brunswick, N.J.) by incorporating 15.2 grams of SX-682 spray dried dispersion (as prepared in Formulation Example 1) into 1042 grams of standard rodent diet with 10% kcals from fat. The medicated feed was formed into pellets. Carboplatin (CP) was administered once weekly via intraperitoneal injection at a dose of 50 mg/kg. […] Mean±SE. *** P<0.0001 (linear regression).

[5] = Stability in human liver microsomes (NADPH-dependent); format: in vitro ADME
Method: The compounds were incubated in duplicate with human liver microsomes at 37° C. The reaction contained microsomal protein in 100 mM potassium phosphate, 2 mM NADPH, 3 mM MgCl2, pH 7.4. A control was run for each compound omitting NADPH to detect NADPH-independent degradation. An aliquot was removed from each experimental and control reaction at 0, 10, 20, 30, and 60 minutes and mixed with an equal volume of ice-cold Stop Solution (0.3% acetic acid in acetonitrile containing haloperidol, diclofenac, or other internal standard). Stopped reactions were incubated for at least ten minutes at −20° C., and an additional volume of water was added. The samples were centrifuged to remove precipitated protein, and the supernatants were analyzed by LCMS/MS to quantitate the remaining compound. Data were converted to percent remaining by dividing by the time zero concentration value. Data were fit to a first-order decay model to determine half-life. Intrinsic clearance was calculated from the half-life and the protein concentrations: CLint=ln(2)/(t½[microsomal protein]). […] More surprising is that eliminating the ring nitrogen in SX-517 yielded a half-life even larger than that of SX-682. The results as a whole led to no SAR predictive of the surprising stability of SX-682.

[6] = tested on: LLC syngeneic mouse model of lung cancer; experiment: LLC syngeneic mouse model of lung cancer; format: in vivo
Method: The Lewis lung carcinoma (LLC) mouse model (Kellar, 2015, Biomed Res Int, 2015:621324, herein incorporated by reference) was used to evaluate the effect of SX-682 alone and in combination with anti-PD-1 antibody. LLC mouse […] cells were cultured, then mice were injected with 0.5×10^6 LLC cells on day 0, and on day 18 treatment was initiated. Mice were treated with vehicle (control), SX-682 alone (50 mg/kg twice daily, oral), anti-PD-1 alone (100 μg twice weekly, i.p.), or SX-682 in combination with anti-PD-1 (N=5 per cohort). SX-682 was used as a spray dried dispersion (Formulation Example 1), and was administered to mice via oral gavage as a suspension in 0.5% aq. methylcellulose.

## O=C(Nc1ccc(F)cc1)c1cnc(SCc2cc(OC(F)(F)F)ccc2B(O)O)nc1 [SX-682, 2-(2-boronic acid-5-trifluoromethoxy-benzylsulfanyl)-pyrimidine-5-carboxylic acid (4-fluoro-phenyl)-amide]
[1]
  time inhibition of calcium flux is sustained after washout: at least 12 hours
[2]; 50 mg/kg b.i.d. oral gavage
  prostate weight (tumor burden), SX-682 alone: inhibited prostate cancer
[2]; SX-682 50 mg/kg b.i.d. oral + anti-PD1 and anti-CTLA4 200 μg each 3×/week
  prostate weight (tumor burden), SX-682 plus ICB: significantly better than control or either treatment alone
[3]
  GROα-mediated MDSC migration: effectively inhibit GROα-mediated MDSC migration in a dose-dependent manner
[4]; 10 mg/day/mouse oral, 1-2 weeks
  tumor volume, SX-682 alone: effective therapy
[4]; SX-682 10 mg/day/mouse oral feed + CP 50 mg/kg weekly i.p.
  tumor growth, SX-682 added to carboplatin: significantly reduced tumor growth
[5]
  microsomal half-life larger than SX-671 or SX-576: 6 fold
[5]; pH 7.4, 37° C., NADPH-dependent, read-out: CLint, microsomal intrinsic clearance
  microsomal CLint: 2.1 µL/min/mg
[6]; 50 mg/kg twice daily, oral
  tumor growth, SX-682 monotherapy: significantly slowed tumor growth
[6]; SX-682 50 mg/kg twice daily oral + anti-PD-1 100 μg twice weekly i.p.
  tumor growth, SX-682 in combination with anti-PD-1: significantly better than either therapy alone
[6]; vs vehicle or anti-PD-1 alone, up to 66 days
  survival, SX-682 in combination with anti-PD-1: significantly enhanced survival
